According to patent publication US6838462B2, “Insecticidal azoles” (Bayer CropScience LP, priority 2001, dated 2005):

What was measured:
Assay type in all cases: in vivo
[1] = tested on: Third larval stages of Periplanela americana; experiment: Test with cockroaches - dip treatment; details: dip treatment 60 seconds, after 7 days, 100% = all cockroach larvae killed
Method: Test with Cockroaches—Dip Treatment
Test animals: Third larval stages of Periplanela americana
(§1) Solvent: Dimethyl sulphoxide
(§2) 20 mg of active compound are dissolved in one ml of dimethyl sulphoxide. To prepare a suitable formulation, the solution of active compound is diluted with water to the particular concentration desired.
[…] of this preparation of active compound are pipetted into tubes (Ø 1.5 cm, H 10 cm). 4 cockroach larvae are anaesthetized with CO2 and transferred into a tube (Ø 1.2 cm, H 9 cm) with 3 holes (bottom and 5 cm below the upper rim). […] The tube is dipped into the preparation of active compound for 60 seconds, with all cockroach larvae being wetted completely. After the liquid has run off, the cockroach larvae are transferred to filter discs in PP dishes (Ø 9.7 cm. H 8 cm).
After 2 and 24 hours and after 7 days, the activity of the preparation of active compound is determined. 100% means that all cockroach larvae have been killed; 0% means that none of the cockroach larvae have been killed.

[2] = tested on: Adults of Ctenocephalides felis, strain "Georgi"; experiment: Test with cat fleas / oral uptake; details: 24 h, read-out: % action (mortality of larvae)
Method: Test with Cat Fleas/Oral Uptake
Test animals: Adults of Crenocephalides felis
Solvent: Dimethyl sulphoxide (DMSO)
To produce a suitable preparation, a suitable solution of active compound is prepared from 20 mg of active compound and 1 ml of DMSO. 20 μl of this formulation are added to 4 ml of citrated cattle blood and stirred.
20 unfed adult fleas (Ctenocephalides felis, strain “Georgi”) are placed into a chamber (Ø 5 cm) whose top and bottom are closed with gauze. A metal cylinder whose underside is covered with parafilm is placed onto the chamber. The cylinder contains the 4 ml of blood/active compound formulation which can be taken up by the fleas through the parafilm membrane. Whereas the blood is warmed to 37° C., the temperature in the area of the flea chambers is adjusted to 25° C. Controls are mixed with the same volume of DMSO, without addition of a compound. The determinations are carried out triplicate.
After 24 h, the mortality in % is determined.
Compounds which effect an at least 25% kill of the fleas within 24 h are judged to be effective.

Lucilia cuprina larvae = experiment: Blowfly larvae test / development-inhibitory action; details: 48 h, read-out: % action (mortality of larvae)
Method: Blowfly Larvae Test/Development-Inhibitory Action
Test animals: Lucilia cuprina larvae
as §1, §2
About 20 Lucilia cuprina larvae are introduced into a test tube which contains about 1 cm^3 of horsemeat and 0.5 ml of the preparation of active compound to be tested. The activity of the preparation of active compound is determined after 48 hours as the mortality of the larvae in %.
The test tubes are then transferred into a beaker whose bottom is covered with sand. After a further 12 days, the test tubes are removed and the pupae and flies are counted. The development-inhibitory action is stated as inhibition of hatching in % (ratio of pupae to flies that have hatched) after 1.5 times the development period of an untreated control.

Cc1s/c(=N\C#N)n2c1N(Cc1ccc(Cl)nc1)CC2 [Compound I-1, 1-[6-Chloro-3-pyridylmethyl]-5-cyanoimino-7-methyl-4.5-dihydro[1,3]diazolano-[1,2-c][1,3]thiazoline]
% action (7 d) ([1]; 100 ppm): 100%
% action (7 d) ([1]; 300 ppm): 100%
% action (7 d) ([1]; 1000 ppm): 100%
mortality at 100 ppm [2]: 30%
mortality at 100 ppm (Lucilia cuprina larvae): 100%
mortality at 300 ppm (Lucilia cuprina larvae): 100%
mortality at 1000 ppm (Lucilia cuprina larvae): 100%
